Measurements as given in PMC5675407, “Sugar analog synthesis by in vitro biocatalytic cascade: A comparison of alternative enzyme complements for dihydroxyacetone phosphate production as a precursor to rare chiral sugar synthesis” (PLoS ONE, 2017).

Biological target: T1, FruASc (Staphylococcus carnosus, UniProt Q07159)
T1 construct: gene fda; recombinant from pETScFruA, E. coli
Assay: LC-MS of aldol product in enzyme cascade
Assay type: biochemical
Settings: DHAP made in situ; acetaldehyde or glyceraldehyde-3-phosphate 10 mM, pH 7.9, 22 °C

T1 sequence (Q07159 2-296): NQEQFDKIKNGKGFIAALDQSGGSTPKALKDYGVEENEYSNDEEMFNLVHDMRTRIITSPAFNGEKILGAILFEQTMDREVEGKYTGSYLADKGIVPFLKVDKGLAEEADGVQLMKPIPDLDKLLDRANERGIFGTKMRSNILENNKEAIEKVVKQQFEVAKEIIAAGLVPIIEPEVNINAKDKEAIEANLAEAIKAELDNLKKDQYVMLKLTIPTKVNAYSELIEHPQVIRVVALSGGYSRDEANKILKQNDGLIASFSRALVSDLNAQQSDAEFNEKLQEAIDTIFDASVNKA

## O=C(CO)COP(=O)(O)O [DHAP]
  LC-MS of aldol product in enzyme cascade: as DHAP was consumed by the aldolase reaction, greater conversion to DHAP occurred
